Where two headings read alike, the source gives them in different places.

For assay [1], the target named is T1, αvβ3 receptor (αvβ3 from human A375 cells) (Homo sapiens, UniProt P05106+P06756).
T1 construct: αvβ3 from human A375 cells was purified analogously to a procedure which was described by Wong et al; endogenous in cells; host or cells: human A375 cells; the receptor was purified from the cells and used detergent-solubilised (n-octyl-glucopyranoside)
Put plainly: αvβ3 binding test (echistatin displacement, WGA SPA beads). The method, then:
αvβ3 from human A375 cells was purified analogously to a procedure which was described by Wong et al. (Molecular Pharmacology, 50, 529–537 (1996)). In each case, 10 μl of αvβ3 (5 ng) in TBS pH 7.6, 2 mM CaCl2, 1 mM MgCl2, 1% n-octyl-glucopyranoside (Sigma); 10 μl of test substance in TBS pH 7.6, 0.1% DMSO and 45 μl of TBS pH 7.6, 2 mM CaCl2, 1 mM MgCl2, 1 mM MnCl2 were incubated at room temperature for 1 h. In each case, 25 μl of WGA SPA beads (Amersham, 4 mg/ml) and 10 μl of echistatin ([…], Amersham, chloramine-T labelled) were then added. After 16 hours at room temperature, the samples were measured in a scintillation measuring apparatus (Wallac 1450).

The next assay concerns B16F10. Put plainly: Growth inhibition test (MTT), cytotoxic action on tumour cell lines. The settings on record: Mus musculus, B16-F10, 144 h, read-out: IC50 values of the cytotoxic action on tumour cell lines, B16F10. The assay is classed as cell-based. The method, then:
(§1) The human large intestine cell lines SW 480 and HT29 (ATCC No. CCL 228 and HTB38), the human breast cell lines MDA-MB 231, MCF-7 and BT20 (ATCC No. HTB-, 26, 22 and 23) and the mouse melanoma cell line B16F 10 (CRL 6475) were grown to confluence in Roux dishes in RPMI 1640 medium with addition of 10% FCS. They were then trypsinized and taken up in RPMI plus 10% FCS to a cell count of 50,000 cells or, for B16F10, 20,000 cells per ml. 100 μl of cell suspension/well were added to a 96 microwell plate and incubated at 37° C. for 1 day in a CO2 incubator. A further 100 μl of RPMI medium and 1 μl of DMSO were then added with the test substances. The growth was checked after day 6. For this, 25 μl of MTT solution (3-(4,5-dimethylthiazol-2-yl)-2,5-diphenyltetrazolium bromide) was added to each well at a starting concentration of 5 mg/ml of H2O. The plate was incubated at 37° C. for 5 hours in a CO2 incubator. The medium was then aspirated and 100 μl of i-propanol/well were added. After shaking with 100 μl of H2O for 30 min, the extinction was measured at 595-nm using a Multiplate Reader (BIO-RAD 3550-UV).
(§2) The cytostatic action is indicated in Table 2 as an IC50 value, in each case for the individual cell lines.

The subject of the next assay is MDA-MB 231. Described as above. The assay is classed as cell-based. Particulars: Homo sapiens, MDA-MB-231, 144 h, read-out: IC50 values of the cytotoxic action on tumour cell lines, MDA-MB 231. On the procedure: as §1, §2
The next assay concerns HT 29. Described as above. The class given is cell-based. The settings on record: Homo sapiens, HT-29, 144 h, read-out: IC50 values of the cytotoxic action on tumour cell lines, HT 29. On the procedure:
as §1, §2

The next assay deals with BT20. The assay is described as above. The settings on record: Homo sapiens, BT-20, 144 h, read-out: IC50 values of the cytotoxic action on tumour cell lines, BT20. The class given is cell-based. The method, then:
as §1, §2

The subject of another assay is SW480. The description is as above. The class given is cell-based. Particulars: Homo sapiens, SW480, 144 h, read-out: IC50 values of the cytotoxic action on tumour cell lines, SW480. On the procedure: as §1, §2
Another assay has as its system MCF7. The assay is described as above. Particulars: Homo sapiens, MCF7, 144 h, read-out: IC50 values of the cytotoxic action on tumour cell lines, MCF7. The assay is classed as cell-based. The method, then: as §1, §2
The mark [2] stands for this setting: αvβ3 purified from human A375 cells, labelled echistatin, read-out: IC50 values of the binding to the αvβ3 receptor.

T1 sequence (P06756 31-889 limits assumed): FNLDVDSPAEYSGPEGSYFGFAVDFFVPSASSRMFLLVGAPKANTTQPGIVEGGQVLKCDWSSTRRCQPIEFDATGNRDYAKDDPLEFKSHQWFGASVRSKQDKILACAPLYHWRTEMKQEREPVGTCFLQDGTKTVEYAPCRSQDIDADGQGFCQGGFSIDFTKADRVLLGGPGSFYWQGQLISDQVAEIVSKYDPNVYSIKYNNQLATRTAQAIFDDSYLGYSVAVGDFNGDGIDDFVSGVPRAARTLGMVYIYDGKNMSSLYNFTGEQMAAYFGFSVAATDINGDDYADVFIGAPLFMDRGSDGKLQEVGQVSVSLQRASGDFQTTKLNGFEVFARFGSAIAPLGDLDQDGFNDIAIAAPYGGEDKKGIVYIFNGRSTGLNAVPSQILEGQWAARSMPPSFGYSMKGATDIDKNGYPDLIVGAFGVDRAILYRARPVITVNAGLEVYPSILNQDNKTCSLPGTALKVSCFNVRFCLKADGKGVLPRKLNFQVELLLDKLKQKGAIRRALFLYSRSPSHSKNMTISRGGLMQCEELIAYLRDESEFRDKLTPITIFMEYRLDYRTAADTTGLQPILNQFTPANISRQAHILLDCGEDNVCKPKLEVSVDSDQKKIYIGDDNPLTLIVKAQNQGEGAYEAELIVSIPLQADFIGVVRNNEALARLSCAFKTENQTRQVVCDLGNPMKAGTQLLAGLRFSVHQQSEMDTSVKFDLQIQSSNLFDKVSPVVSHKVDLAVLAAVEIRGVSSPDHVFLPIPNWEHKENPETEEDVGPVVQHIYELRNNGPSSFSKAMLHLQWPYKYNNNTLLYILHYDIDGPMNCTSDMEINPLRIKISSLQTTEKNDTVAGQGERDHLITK
T1 sequence (P06756 891-1048 partner limits assumed): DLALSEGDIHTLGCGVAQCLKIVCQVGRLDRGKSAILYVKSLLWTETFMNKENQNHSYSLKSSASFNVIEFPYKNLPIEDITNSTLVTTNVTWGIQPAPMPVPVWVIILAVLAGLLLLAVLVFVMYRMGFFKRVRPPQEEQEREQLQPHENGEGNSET
T1 sequence (P05106 27-788): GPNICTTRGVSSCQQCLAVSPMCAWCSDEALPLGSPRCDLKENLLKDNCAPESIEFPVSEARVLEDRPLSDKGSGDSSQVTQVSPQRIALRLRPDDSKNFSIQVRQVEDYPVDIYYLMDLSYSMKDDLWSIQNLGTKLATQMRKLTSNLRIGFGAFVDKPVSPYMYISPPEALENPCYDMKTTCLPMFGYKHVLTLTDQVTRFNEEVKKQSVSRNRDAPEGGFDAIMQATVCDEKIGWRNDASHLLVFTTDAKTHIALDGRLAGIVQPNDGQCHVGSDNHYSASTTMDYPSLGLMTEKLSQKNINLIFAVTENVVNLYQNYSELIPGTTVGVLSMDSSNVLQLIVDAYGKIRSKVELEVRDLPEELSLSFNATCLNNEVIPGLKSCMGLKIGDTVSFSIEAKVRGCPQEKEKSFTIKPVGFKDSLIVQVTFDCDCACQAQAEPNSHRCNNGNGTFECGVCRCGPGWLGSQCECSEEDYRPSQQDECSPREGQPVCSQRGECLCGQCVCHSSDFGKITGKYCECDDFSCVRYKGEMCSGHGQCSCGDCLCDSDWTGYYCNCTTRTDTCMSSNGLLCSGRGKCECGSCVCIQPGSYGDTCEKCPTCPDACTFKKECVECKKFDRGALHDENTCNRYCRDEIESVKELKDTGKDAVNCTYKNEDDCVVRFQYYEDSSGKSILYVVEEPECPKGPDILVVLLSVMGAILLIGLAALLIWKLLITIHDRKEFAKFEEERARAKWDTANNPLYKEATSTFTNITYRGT

For `CC[C@@]1(OC(=O)C(NC(=O)C(CCCCN)NC(=S)Nc2cccc(-c3ccc(C[C@H](NS(=O)(=O)CC45CCC(CC4=O)C5(C)C)C(=O)O)cc3)c2)C(C)C)C(=O)OCc2c1cc1n(c2=O)Cc2cc3ccccc3nc2-1` (stereo partly shown) [Example 2.5], the IC50 came to 190 nM in assay [1] (setting [2]); 400 nM in the assay with B16F10; 300 nM with MDA-MB 231; 300 nM in the assay on HT 29; 400 nM with BT20; 200 nM in the assay with SW480. Further, in the assay on MCF7, the IC50 was found to be 300 nM.

For `CC[C@@]1(OC(=O)[C@@H](NC(=O)Nc2cccc(-c3ccc(C[C@H](NS(=O)(=O)CC45CCC(CC4=O)C5(C)C)C(=O)O)cc3)c2)C(C)C)C(=O)OCc2c1cc1n(c2=O)Cc2cc3ccccc3nc2-1` (stereo partly shown) [Example 2.8], the IC50 came to 83 nM in assay [1] (setting [2]); 200 nM in the assay on B16F10; 15 nM in the assay on MDA-MB 231; 10 nM in the assay with HT 29; 9 nM in the assay on BT20; 20 nM in the assay on SW480. Moreover, the IC50 in the assay with MCF7 came to 10 nM.

`CCCNC(=O)Nc1cccc(-c2ccc(CC(NC(=O)N[C@H](C(=O)O[C@]3(CC)C(=O)OCc4c3cc3n(c4=O)Cc4cc5ccccc5nc4-3)C(C)C)C(=O)O)cc2)c1` (stereo partly shown) [Example 3.14]: the IC50 in assay [1] (setting [2]) came to 21 nM; in the assay on B16F10 it was 200 nM; in the assay on MDA-MB 231, 150 nM; in the assay on HT 29 it was 100 nM; in the assay on BT20 it was 100 nM; in the assay with SW480, 150 nM. Besides, the IC50 in the assay on MCF7 was 80 nM.

`CC[C@@]1(OC(=O)[C@@H](NC(=O)[C@H](CCCCNC(=O)CC(NC(=O)CNC(=O)c2cccc(NC(=N)N)c2)c2ccccc2)NC(=S)Nc2ccccc2)C(C)C)C(=O)OCc2c1cc1n(c2=O)Cc2cc3ccccc3nc2-1` (stereo partly shown) [Example 1.1]: the half-maximal inhibitory concentration (IC50) in assay [1] (setting [2]) turned out to be 873 nM; in the assay on MDA-MB 231, 100 nM; with HT 29, 120 nM; in the assay on BT20, 150 nM; with SW480, 200 nM; with MCF7 it was 90 nM.

As to `CCC1(OC(=O)[C@@H](NC(=O)Nc2cccc(-c3ccc(S(=O)(=O)NC(CC(=O)O)c4ccccc4)cc3)c2)C(C)C)C(=O)OCc2c1cc1n(c2=O)Cc2cc3ccccc3nc2-1` (stereo partly shown) [Example 2.12], the IC50 in assay [1] (setting [2]) was 127 nM; in the assay on B16F10, 20 nM; in the assay on MDA-MB 231, 10 nM; in the assay with HT 29 it was 9 nM; in the assay with BT20, 8 nM; in the assay with SW480 it was 20 nM. In the assay on MCF7, the IC50 is 10 nM.

As for `CC[C@@]1(OC(=O)[C@@H](NC(=O)[C@H](Cc2cnc[nH]2)NC(=S)Nc2cccc(C(CC(=O)O)NS(=O)(=O)c3cccc(-c4cccc(NC(=O)Nc5nc6ccccc6[nH]5)c4)c3)c2)C(C)C)C(=O)OCc2c1cc1n(c2=O)Cc2cc3ccccc3nc2-1` (stereo partly shown) [Example 3.6], the IC50 in assay [1] stood at 22 nM; in the assay with B16F10, 2000 nM; with MDA-MB 231, 400 nM; with HT 29, 300 nM; in the assay on BT20, 1000 nM; in the assay with SW480 it was 400 nM. Besides, in the assay on MCF7, the IC50 came out at 400 nM.

As for `CC[C@@]1(OC(=O)[C@@H](NC(=O)[C@H](CCCCNC(=O)OCC2c3ccccc3-c3ccccc32)NC(=O)Nc2cccc(-c3ccc(S(=O)(=O)NC(CC(=O)O)c4ccccc4)cc3)c2)C(C)C)C(=O)OCc2c1cc1n(c2=O)Cc2cc3ccccc3nc2-1` (stereo partly shown) [Example 2.14], the IC50 was found to be 84 nM in assay [1]; 25 nM in the assay with B16F10; 300 nM in the assay on MDA-MB 231; 300 nM with HT 29; 200 nM in the assay with BT20; 300 nM with SW480. For the same compound, the IC50 with MCF7 was determined as 150 nM.

For `CC[C@@]1(OC(=O)C(NC(=O)C(Cc2cnc[nH]2)NC(=S)Nc2cccc(-c3ccc(C[C@H](NS(=O)(=O)CC45CCC(CC4=O)C5(C)C)C(=O)O)cc3)c2)C(C)C)C(=O)OCc2c1cc1n(c2=O)Cc2cc3ccccc3nc2-1` (stereo partly shown) [Example 2.4], the IC50 in assay [1] (setting [2]) stood at 110 nM; in the assay on B16F10, 500 nM; in the assay on MDA-MB 231, 400 nM; in the assay with HT 29 it was 300 nM; in the assay with BT20, 1500 nM; with SW480 it was 400 nM. Moreover, the IC50 in the assay on MCF7 was determined as 800 nM.

Regarding `CC[C@@]1(OC(=O)[C@@H](NC(=O)[C@H](CCCCN)NC(=S)Nc2cccc(C(=O)NCC(=O)NC(CC(=O)O)c3ccccc3)c2)C(C)C)C(=O)OCc2c1cc1n(c2=O)Cc2cc3ccccc3nc2-1` (stereo partly shown) [Example 2.1], the IC50 in assay [1] (setting [2]) worked out at 1450 nM; in the assay with B16F10 it was 400 nM; in the assay with MDA-MB 231 it was 60 nM; in the assay on HT 29 it was 90 nM; with BT20, 100 nM; in the assay with SW480, 150 nM. In the assay with MCF7, the half-maximal inhibitory concentration (IC50) was found to be 70 nM.

In the case of `CC[C@@]1(OC(=O)[C@@H](NC(=O)[C@H](Cc2cnc[nH]2)NC(=S)Nc2ccc(CC(NS(=O)(=O)c3cc(-c4cccc(NC(=O)Nc5nc6ccccc6[nH]5)c4)ccc3OC)C(=O)O)cc2)C(C)C)C(=O)OCc2c1cc1n(c2=O)Cc2cc3ccccc3nc2-1` (stereo partly shown) [Example 3.7], the IC50 in assay [1] came out at 111 nM; in the assay with B16F10 it was 800 nM; with MDA-MB 231, 300 nM; with HT 29 it was 200 nM; in the assay on BT20, 600 nM; with SW480, 400 nM. Moreover, the IC50 in the assay with MCF7 was 400 nM.

`CC[C@@]1(OC(=O)[C@@H](NC(=O)[C@H](Cc2c[nH]cn2)NC(=S)Nc2cccc(S(=O)(=O)Nc3cccc(C(CC(=O)O)NS(=O)(=O)c4ccccc4)c3)c2)C(C)C)C(=O)OCc2c1cc1n(c2=O)Cc2cc3ccccc3nc2-1` (stereo partly shown) [Example 2.3]: the concentration for half-maximal inhibition (IC50) in assay [1] was found to be 697 nM; in the assay on MDA-MB 231, 20 nM; in the assay with HT 29, 70 nM; with BT20 it was 80 nM; with SW480, 120 nM; in the assay on MCF7 it was 60 nM.

As to `CCCNC(=O)Nc1cccc(S(=O)(=O)Nc2cccc(C(CC(=O)O)NC(=S)Nc3cccc4nc5c(cc34)Cn3c-5cc4c(c3=O)COC(=O)[C@]4(O)CC)c2)c1` (stereo partly shown) [Example 3.16], the IC50 in assay [1] (setting [2]) turned out to be 51 nM; in the assay with B16F10, 1000 nM; with MDA-MB 231 it was 1000 nM; in the assay with HT 29 it was 100 nM; in the assay on BT20 it was 700 nM; in the assay with SW480, 500 nM. In addition, in the assay on MCF7, the IC50 is 300 nM.

Regarding `CC[C@@]1(OC(=O)[C@@H](NC(=O)[C@H](CCC(=O)O)NC(=S)Nc2cccc(C(=O)NCC(=O)NC(CC(=O)O)c3ccccc3)c2)C(C)C)C(=O)OCc2c1cc1n(c2=O)Cc2cc3ccccc3nc2-1` (stereo partly shown) [Example 2.2], the IC50 in assay [1] (setting [2]) is 1500 nM; in the assay with MDA-MB 231, 300 nM; in the assay with HT 29, 300 nM; in the assay with BT20, 400 nM; with SW480, 500 nM; with MCF7, 300 nM.

Regarding `CC[C@@]1(OC(=O)[C@@H](NC(=O)[C@H](Cc2c[nH]cn2)NC(=S)Nc2ccc(C(=O)NC(CC(=O)O)c3cccc(NS(=O)(=O)c4cccc(NC(=N)N)c4)c3)cc2)C(C)C)C(=O)OCc2c1cc1n(c2=O)Cc2cc3ccccc3nc2-1` (stereo partly shown) [Example 3.3], the IC50 in assay [1] came to 45 nM; with MDA-MB 231, 100 nM; in the assay with HT 29, 90 nM; with BT20 it was 150 nM; in the assay on SW480, 300 nM; with MCF7, 100 nM.

Turning to `CC[C@@]1(O)C(=O)OCc2c1cc1n(c2=O)Cc2cc3c(NC(=S)NC(CC(=O)O)c4cccc(NS(=O)(=O)c5cccc(NC(=N)N)c5)c4)cccc3nc2-1` (stereo partly shown) [Example 3.17], the IC50 in assay [1] (setting [2]) amounted to 66 nM; in the assay on B16F10 it was 5000 nM; with MDA-MB 231, 3000 nM; in the assay on HT 29, 600 nM; in the assay with BT20, 5000 nM; in the assay on SW480 it was 800 nM.
